In ChEMBL document CHEMBL1949526, “Cyclic hydroxyamidines as amide isosteres: discovery of oxadiazolines and oxadiazines as potent and highly efficacious γ-secretase modulators in vivo” (J Med Chem, 2012):

Tests used:
[1] = Cmax in dog at 10 mg/kg, po; assay type: ADME, organism-based, Canis lupus familiaris; set-up: dose 10 mg/kg, route oral; conditions: in vivo
Rattus norvegicus [2] = species: Rattus norvegicus; assay: Toxicity in rat assessed as production of goblet cell meta/hyperplasia in ileum at highest tolerable dose; assay type: organism-based; conditions: in vivo
Rattus norvegicus [3] = assay: Antialzheimer activity in CD rat assessed as reduction in amyloid beta42 level in CSF administered as po for 6 days by alphaLISA analysis relative to total amyloid beta level; assay type: functional, organism-based
Gamma-secretase [4] = assay: Modulation of gamma-secretase-mediated cleavage of human APP Swedish and London mutation expressed in HEK293 cells assessed as inhibition of amyloid beta40 production after 5 hrs by sandwich immunoassay; assay type: cell-based
[5] = AUC in rat at 10 mg/kg, po; assay type: ADME, organism-based, Plasma; set-up: dose 10 mg/kg, route oral; conditions: plasma
[6] = Oral bioavailability in rat at 10 mg/kg; assay type: ADME, organism-based; conditions: in vivo
Rattus norvegicus [7] = assay: Antialzheimer activity in po dosed CD rat assessed as reduction in amyloid beta42 level in plasma after 3 hrs by alphaLISA analysis relative to amyloid beta40 level; assay type: functional, organism-based
Gamma-secretase [8] = assay: Modulation of gamma-secretase-mediated cleavage of human APP Swedish and London mutation expressed in HEK293 cells assessed as inhibition of amyloid beta42 production after 5 hrs by sandwich immunoassay; assay type: cell-based
[9] = Volume of distribution at steady state in dog at 3 mg/kg, iv; assay type: ADME, organism-based, Canis lupus familiaris; set-up: dose 3 mg/kg, route intravenous; conditions: in vivo, read-out: Vdss
Rattus norvegicus [10] = assay: Antialzheimer activity in CD rat assessed as reduction in total amyloid beta level in plasma at 10 mg/kg, po after 3 hrs by alphaLISA analysis; assay type: functional; set-up: scale not given: the % may be the effect or the level left
[11] = Clearance in dog at 3 mg/kg, iv; assay type: ADME, organism-based, Canis lupus familiaris; set-up: dose 3 mg/kg, route intravenous; conditions: in vivo
Rattus norvegicus [12] = assay: Antialzheimer activity in CD rat assessed as reduction in amyloid beta42 level in CSF at 10 mg/kg, po after 3 hrs by alphaLISA analysis; assay type: functional; set-up: scale not given: the % may be the effect or the level left
Rattus norvegicus [13] = assay: Antialzheimer activity in po dosed CD rat assessed as reduction in amyloid beta42 level in CSF after 3 hrs by alphaLISA analysis relative to amyloid beta40 level; assay type: functional, organism-based
Rattus norvegicus [14] = assay: Antialzheimer activity in CD rat assessed as reduction in amyloid beta40 level in cortex at 10 mg/kg, po after 3 hrs by alphaLISA analysis; assay type: functional; set-up: scale not given: the % may be the effect or the level left
Rattus norvegicus [15] = assay: Antialzheimer activity in CD rat assessed as reduction in total amyloid beta level in CSF at 10 mg/kg, po after 3 hrs by alphaLISA analysis; assay type: functional; set-up: scale not given: the % may be the effect or the level left
Rattus norvegicus [16] = species: Rattus norvegicus; assay: Toxicity in rat assessed as effect on HES-1 expression in jejunum at highest tolerable dose; assay type: organism-based; conditions: in vivo
Rattus norvegicus [17] = assay: Antialzheimer activity in po dosed CD rat assessed as reduction in amyloid beta42 level in plasma after 3 hrs by alphaLISA analysis relative to total amyloid beta level; assay type: functional, organism-based
Rattus norvegicus [18] = assay: Antialzheimer activity in CD rat assessed as reduction in amyloid beta42 level in CSF administered as po for 6 days by alphaLISA analysis relative to total amyloid beta40 level; assay type: functional, organism-based
Rattus norvegicus [19] = assay: Antialzheimer activity in CD rat assessed as reduction in amyloid beta42 level in plasma administered as po for 6 days by alphaLISA analysis relative to total amyloid beta level; assay type: functional, organism-based
[20] = Ratio of drug level in brain to plasma in CD rat at 10 mg/kg, po after 3 hrs; assay type: ADME, organism-based; set-up: dose 10 mg/kg, route oral; conditions: read-out: BPR
[21] = Cmax in monkey at 10 mg/kg, po; assay type: ADME, organism-based, Macaca mulatta; set-up: dose 10 mg/kg, route oral; conditions: rhesus monkey, in vivo
[22] = Oral bioavailability in monkey at 10 mg/kg; assay type: ADME, organism-based, Macaca mulatta; conditions: rhesus monkey, in vivo
[23] = Oral bioavailability in dog at 10 mg/kg; assay type: ADME, organism-based, Canis lupus familiaris; conditions: in vivo
Rattus norvegicus [24] = species: Rattus norvegicus; assay: Toxicity in rat assessed as decrease in body weight at highest tolerable dose; assay type: organism-based; conditions: in vivo
[25] = Volume of distribution at steady state in rat at 3 mg/kg, iv; assay type: ADME, organism-based; set-up: dose 3 mg/kg, route intravenous; conditions: in vivo, read-out: Vdss
[26] = Plasma concentration in CD rat at 10 mg/kg, po after 3 hrs; assay type: ADME, organism-based; set-up: dose 10 mg/kg, route oral
Rattus norvegicus [27] = assay: Antialzheimer activity in CD rat assessed as reduction in amyloid beta42 level in cortex administered as po for 6 days by alphaLISA analysis relative to total amyloid beta40 level; assay type: functional, organism-based
Rattus norvegicus [28] = assay: Antialzheimer activity in po dosed CD rat assessed as reduction in amyloid beta42 level in cortex after 3 hrs by alphaLISA analysis relative to total amyloid beta level; assay type: functional, organism-based
[29] = Volume of distribution at steady state in monkey at 3 mg/kg, iv; assay type: ADME, organism-based, Macaca mulatta; set-up: dose 3 mg/kg, route intravenous; conditions: rhesus monkey, in vivo, read-out: Vdss
Rattus norvegicus [30] = assay: Antialzheimer activity in po dosed CD rat assessed as reduction in amyloid beta42 level in cortex after 3 hrs by alphaLISA analysis relative to amyloid beta40 level; assay type: functional, organism-based
[31] = Half life in rat at 3 mg/kg, iv; assay type: ADME, organism-based; set-up: dose 3 mg/kg, route intravenous; conditions: in vivo
Rattus norvegicus [32] = assay: Antialzheimer activity in CD rat assessed as reduction in amyloid beta42 level in plasma administered as po for 6 days by alphaLISA analysis relative to total amyloid beta40 level; assay type: functional, organism-based
Canis familiaris = species: Canis familiaris; assay: Cardiotoxicity in dog assessed as effect on electrocardiographic QTc interval at compound concentration required for pharmacological effect; assay type: toxicity, organism-based, Canis lupus familiaris; conditions: in vivo
[33] = AUC in dog at 10 mg/kg, po; assay type: ADME, organism-based, Canis lupus familiaris, Plasma; set-up: dose 10 mg/kg, route oral; conditions: plasma
Rattus norvegicus [34] = assay: Antialzheimer activity in CD rat assessed as reduction in amyloid beta42 level in cortex administered as po for 6 days by alphaLISA analysis relative to total amyloid beta level; assay type: functional, organism-based
[35] = Clearance in rat at 3 mg/kg, iv; assay type: ADME, organism-based; set-up: dose 3 mg/kg, route intravenous; conditions: in vivo
Rattus norvegicus [36] = assay: Antialzheimer activity in po dosed CD rat assessed as reduction in amyloid beta42 level in CSF after 3 hrs by alphaLISA analysis relative to total amyloid beta level; assay type: functional, organism-based
Rattus norvegicus [37] = assay: Antialzheimer activity in CD rat assessed as reduction in amyloid beta42 level in plasma at 10 mg/kg, po after 3 hrs by alphaLISA analysis; assay type: functional; set-up: scale not given: the % may be the effect or the level left
Rattus norvegicus [38] = species: Rattus norvegicus; assay: Toxicity in rat assessed as decrease in thymus size at highest tolerable dose; assay type: organism-based; conditions: in vivo
[39] = Cmax in rat at 10 mg/kg, po; assay type: ADME, organism-based; set-up: dose 10 mg/kg, route oral; conditions: in vivo
[40] = Clearance in monkey at 3 mg/kg, iv; assay type: ADME, organism-based, Macaca mulatta; set-up: dose 3 mg/kg, route intravenous; conditions: rhesus monkey, in vivo
[41] = Permeability from apical to basolateral side of human Caco2 cells; assay type: ADME, cell-based; conditions: Caco-2, read-out: permeability
[42] = AUC in monkey at 10 mg/kg, po; assay type: ADME, organism-based, Macaca mulatta; set-up: dose 10 mg/kg, route oral; conditions: rhesus monkey, plasma
Rattus norvegicus [43] = assay: Antialzheimer activity in CD rat assessed as reduction in amyloid beta40 level in plasma at 10 mg/kg, po after 3 hrs by alphaLISA analysis; assay type: functional; set-up: scale not given: the % may be the effect or the level left
Gamma-secretase [44] = assay: Modulation of gamma-secretase-mediated notch signaling in HEK293 cells transfected with human APP Swedish and London mutation and Notch1 with truncated extracellular EGF repeat domain assessed as production of notch intracellular domain by MSD-based sandwich immunoassay; assay type: cell-based
[45] = Half life in dog at 3 mg/kg, iv; assay type: ADME, organism-based, Canis lupus familiaris; set-up: dose 3 mg/kg, route intravenous; conditions: in vivo
Rattus norvegicus [46] = species: Rattus norvegicus; assay: Toxicity in rat assessed as effect on adipsin expression in jejunum at highest tolerable dose; assay type: organism-based; conditions: in vivo
Rattus norvegicus [47] = assay: Antialzheimer activity in CD rat assessed as reduction in amyloid beta40 level in CSF at 10 mg/kg, po after 3 hrs by alphaLISA analysis; assay type: functional; set-up: scale not given: the % may be the effect or the level left
Gamma-secretase [48] = assay: Modulation of gamma-secretase-mediated cleavage of human APP Swedish and London mutation expressed in HEK293 cells assessed as reduction of total amyloid beta level after 5 hrs by sandwich immunoassay; assay type: cell-based
[49] = Half life in monkey at 3 mg/kg, iv; assay type: ADME, organism-based, Macaca mulatta; set-up: dose 3 mg/kg, route intravenous; conditions: rhesus monkey, in vivo
Rattus norvegicus [50] = assay: Antialzheimer activity in CD rat assessed as reduction in amyloid beta42 level in cortex at 10 mg/kg, po after 3 hrs by alphaLISA analysis; assay type: functional; set-up: scale not given: the % may be the effect or the level left

COc1cc(/C=C2\CCCN3C2=NO[C@]3(CO)c2ccc(F)cc2)ccc1-n1cnc(C)c1
Cmax [1]: 4 µM
Activity (Rattus norvegicus [2]): Non-toxic
Activity (Rattus norvegicus [3]): Dose-dependent effect
IC50 (Gamma-secretase [4]): 170 nM
AUC [5]: 61 µM·h
bioavailability [6]: 98%
Activity (Rattus norvegicus [7]): Dose-dependent effect
IC50 (Gamma-secretase [8]): 29 nM
Vd [9]: 0.4 L/kg
Activity (Rattus norvegicus [10]): 77%
clearance [11]: 5 mL/min/kg
Activity (Rattus norvegicus [12]): 66%
Activity (Rattus norvegicus [13]): Dose-dependent effect
Activity (Rattus norvegicus [14]): 77%
Activity (Rattus norvegicus [15]): 120%
Activity (Rattus norvegicus [16]): Non-toxic
Activity (Rattus norvegicus [17]): Dose-dependent effect
Activity (Rattus norvegicus [18]): Dose-dependent effect
Activity (Rattus norvegicus [19]): Dose-dependent effect
Kp at 3 h [20]: 0.15
Cmax [21]: 8.8 µM
bioavailability [22]: 48%
bioavailability [23]: 38%
Activity (Rattus norvegicus [24]): Non-toxic
Vd [25]: 1.6 L/kg
concentration at 3 h [26]: 3.6 µM
Activity (Rattus norvegicus [27]): Dose-dependent effect
Activity (Rattus norvegicus [28]): Dose-dependent effect
Vd [29]: 1.4 L/kg
Activity (Rattus norvegicus [30]): Dose-dependent effect
half-life [31]: 3.4 h
Activity (Rattus norvegicus [32]): Dose-dependent effect
Activity (Canis familiaris): Non-toxic
AUC [33]: 26 µM·h
Activity (Rattus norvegicus [34]): Dose-dependent effect
clearance [35]: 6.1 mL/min/kg
Activity (Rattus norvegicus [36]): Dose-dependent effect
Activity (Rattus norvegicus [37]): 41%
Activity (Rattus norvegicus [38]): Non-toxic
Cmax [39]: 7.5 µM
clearance [40]: 6 mL/min/kg
Papp A→B [41]: 30.2 ×10⁻⁶ cm/s
AUC [42]: 30 µM·h
Activity (Rattus norvegicus [43]): 44%
IC50 (Gamma-secretase [44]): > 50000 nM
half-life [45]: 1.4 h
Activity (Rattus norvegicus [46]): Non-toxic
Activity (Rattus norvegicus [47]): 104%
IC50 (Gamma-secretase [48]): 14100 nM
half-life [49]: 3 h
Activity (Rattus norvegicus [50]): 37%
